This assay concerns Aspergillus niger ATCC 6275. Description: Microplate growth inhibition / MIC and FIC index (synergy) test, optical density at 620 nm. Type of assay: cell-based. As to conditions: for microbial growth percentage: 0 A. The source says: 1] with: • MIC of A with B: minimum concentration of product A in the combination A+B which makes it possible to obtain an inhibitory effect; • MIC of B with A: minimum concentration of product B in the combination A+B which makes it possible to obtain an inhibitory effect; • MIC of A: minimum inhibitory concentration of product A alone; • MIC of B: minimum inhibitory concentration of product B alone.
When the FIC index value is less than or equal to 1, it is considered that the combination of test compounds has a synergistic effect.
The microbial strain Aspergillus niger ATCC 6275, and a double-concentration Sabouraud broth liquid culture medium supplemented with polyoxyethylenated (20 EO) sorbitan monopalmitate (Tween 40 from Croda) and Phytagel© BioReagent were used (i.e. a mixture of 5 g of Phytagel+0.6 g of Tween 40+60 g of Sabouraud broth).
A 96-well microplate at an incubation temperature of 32.5° C. is used.
The incubation time of the microplate is: • from 24 to 30 h under aerobic conditions for microbial Aspergillus niger ATCC 6275; • from 18 to 24 h under aerobic conditions for Candida albicans ATCC 10231, Pseudomonas aeruginosa ATCC 9027 and Staphylococcus aureus ATCC 6538; Tests
A 10% (weight/volume) stock solution was prepared by mixing 1 g of compound in 9 ml of aqueous 1%0 agar solution. Successive dilutions were made with the 1%0 agar solution.
50 μl of each of the daughter solutions obtained containing compound A or B are added to the microplate wells. 100 μl of Sabouraud liquid nutrient broth inoculated at double concentration with the Aspergillus niger strain and 50 μl of aqueous 1%0 agar solution are also added thereto.
50 μl of each of the daughter solutions obtained containing compound A and 50 μl of each of the daughter solutions obtained containing compound B are added to the microplate wells. 100 μl of Sabouraud liquid nutrient broth inoculated at double concentration with the strain Aspergillus niger are also added thereto.
A positive microbial growth control was also prepared. The positive microbial growth control corresponds to the mixture of 100 μl of aqueous 1%0 agar solution with 100 μl of Sabouraud liquid nutrient broth inoculated at double concentration with the strain Aspergillus niger in the absence of compounds A and B.
An absorbance control was performed in parallel on compounds A and B alone. This control corresponds to 100 μl of double concentration sterile Sabouraud liquid nutrient broth+100 μl of double concentration compound A or B.
In the three cases (absorbance control, growth control and test), the final volume present in each of the microplate wells is 200 μl.
In the two cases (test and control), the inoculum represents the concentration of the Aspergillus niger strain present in the final volume of the wells (200 μl) and is between 2 and 6×10^5 cfu/ml of Aspergillus niger.

On to `CC(=O)c1ccc(O)cc1` [B, 4-hydroxyacetophenone], for which the microbial growth percentage is on record as 86% (0.0625 weight % B), 72% (0.125 weight % B), 79% (0.25 weight % B) and 6% (0.5 weight % B). Besides, under “first concentration giving growth <= 25%”, the “% MIC of B alone” value turned out to be 0.5%.

For the origin of these results see patent publication US12576015B2, “Antimicrobial mixture containing 4-(3-ethoxy-4-hydroxyphenyl)butan-2-one and an alcohol compound, and cosmetic composition containing same” (L'OREAL, priority 2018, dated 2026).
